From patent US4450269A, “Mono-5-substituted-3-chloro-4H-1,2,6-thiadiazin-4-one antifungal agents” (FMC Corporation, priority 1980, dated 1984)

Tests used:
Venturia inaequalis = test: Spore germination test; assay type: cell-based; settings: VI, 48 hours
Method in brief: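 Compound from acetone stock mixed into water agar at 40, 10, 2.5 and 1 ppm; plated quadrants inoculated with spore suspension in sterile water. Incubation 48 hours at 24° C, then percentage of germinated spores counted and converted to a germination rating.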

Fusarium solani = test: Mycelial growth test; assay type: cell-based; settings: for inhibition at 5 ppm / inhibition at 10 ppm / inhibition at 20 ppm / inhibition at 40 ppm: Fusarium solani, 72 h; for inhibition at 5 ppm / inhibition at 10 ppm / inhibition at 20 ppm: read-out: Percent Fungus Growth Inhibition; for inhibition at 40 ppm: read-out: Percent Fungus Growth Inhibition, PS, 40 ppm, 72 hours
Uromyces phaseoli = test: whole plant or invertebrate; settings: foliar, read-out: Percent Disease Control, foliar, bean rust

SMILES	Spore Germination Rating (Venturia inaequalis; 1.0 ppm)	Spore Germination Rating (Venturia inaequalis; 2.5 ppm)	Spore Germination Rating (Venturia inaequalis; 10 ppm)	Spore Germination Rating (Venturia inaequalis; 40 ppm)	inhibition at 5 ppm (Fusarium solani; PS, 72 hours)	inhibition at 10 ppm (Fusarium solani; PS, 10 ppm, 72 hours)	inhibition at 20 ppm (Fusarium solani; PS, 72 hours)	inhibition at 40 ppm (Fusarium solani)	pest or weed control at 150 ppm (Uromyces phaseoli)	Percent Fungus Growth Inhibition (Fusarium solani; PS, 10 ppm, 72 hours)
CC(=O)c1ccccc1Oc1nsnc(Cl)c1=O [Compound 49, 3-(2-acetylphenoxy)-5-chloro-4H--1,2,6-thiadiazin-4-one]	4 (80-100)	4 (80-100)	1 (10-40)	0 (0-10)	0%	7%	34%	67%	100%	–
O=c1c(Cl)nsnc1Oc1cccc(Cl)c1Cl [Compound 19, 3-chloro-5-(2,3-dichlorophenoxy)-4H--1,2,6-thiadiazin-4-one]	1 (10-40)	0 (0-10)	0 (0-10)	0 (0-10)	50%	66%	81%	100%	0%	–
O=c1c(Cl)nsnc1Oc1ccc(Cl)cc1Cl [Compound 17, 3-chloro-5-(2,4-dichlorophenoxy)-4H--1,2,6-thiadiazin-4-one]	0 (0-10)	0 (0-10)	0 (0-10)	0 (0-10)	50%	75%	100%	100%	100%	–
O=c1c(Cl)nsnc1Oc1cc(Cl)cc(Cl)c1 [Compound 20, 3-chloro-5-(3,5-dichlorophenoxy)-4H--1,2,6-thiadiazin-4-one]	0 (0-10)	0 (0-10)	0 (0-10)	0 (0-10)	59%	66%	100%	69%	100%	–
Nc1ccc(Oc2nsnc(Cl)c2=O)cc1 [Compound 26, 5-(4-aminophenoxy)-3-chloro-4H--1,2,6-thiadiazin-4-one]	4 (80-100)	4 (80-100)	4 (80-100)	1 (10-40)	13%	–	17%	42%	0%	33%
O=c1c(Cl)nsnc1Oc1ccc([N+](=O)[O-])cc1 [Compound 9, 3-chloro-5-(4-nitrophenoxy)-4H--1,2,6-thiadiazin-4-one]	0 (0-10)	0 (0-10)	0 (0-10)	0 (0-10)	65%	76%	53%	100%	98%	–
Cc1cc(Oc2nsnc(Cl)c2=O)cc(C)c1Br [Compound 60, 3-[(4-bromo-3,5-dimethyl)-phenoxy]-5-chloro-4H--1,2,6-thiadiazin-4-one]	2 (40-60)	1 (10-40)	0 (0-10)	0 (0-10)	63%	50%	56%	75%	100%	–
O=c1c(Cl)nsnc1Oc1ccc(Br)cc1 [Compound 15, 3-chloro-5-(4-bromophenoxy)-4H--1,2,6-thiadiazin-4-one]	0 (0-10)	0 (0-10)	0 (0-10)	0 (0-10)	0%	42%	42%	83%	100%	–
